In publication PMC6779273, “Emodepside has sex-dependent immobilizing effects on adult Brugia malayi due to a differentially spliced binding pocket in the RCK1 region of the SLO-1 K channel” (PLoS Pathogens, 2019):

Key:
[1] = target: T1, Bma-SLO-1A (SLO-1 K channel, splice variant A) (Brugia malayi, UniProt A0A0H5S223); assay: two-electrode voltage clamp, Xenopus laevis oocytes expressing slo-1a (small but detectable outward current); format: cell-based
T1 construct: full-length slo-1a splice variant
From the text: two-electrode voltage clamp, Xenopus laevis oocytes expressing slo-1a (small but detectable outward current) on Bma-SLO-1A (SLO-1 K channel, splice variant A) | When we expressed slo-1a, or slo-1a with slo-1f (Fig 4C & 4D), we found much smaller, but still detectable currents.

[2] = target: T2, Bma-SLO-1F (SLO-1 K channel, splice variant F) (Brugia malayi, UniProt A0A0J9Y9H3); assay: two-electrode voltage clamp, Xenopus laevis oocytes expressing slo-1f (activation of outward current); format: cell-based
T2 construct: full-length slo-1f splice variant

In the case of CC(C)C[C@H]1C(=O)O[C@H](Cc2ccc(N3CCOCC3)cc2)C(=O)N(C)[C@@H](CC(C)C)C(=O)O[C@H](C)C(=O)N(C)[C@@H](CC(C)C)C(=O)O[C@H](Cc2ccc(N3CCOCC3)cc2)C(=O)N(C)[C@@H](CC(C)C)C(=O)O[C@H](C)C(=O)N1C [emodepside], the EC50 [1] is reported as over 30 µM and the EC50 [2] is reported as 5 ± 1 µM.
